Data: ChEMBL document CHEMBL2074104, “Interaction of cysteine conjugates with human and rabbit organic anion transporter 1” (J Pharmacol Exp Ther, 2003)

Legend:
[1] = target: T1, Solute carrier family 22 member 6 (Homo sapiens, UniProt Q4U2R8); assay: TP_TRANSPORTER: inhibition of PAH uptake in OAT1-COS7 cells; format: functional, cell-based, COS-7
T1 sequence (Q4U2R8 whole entry): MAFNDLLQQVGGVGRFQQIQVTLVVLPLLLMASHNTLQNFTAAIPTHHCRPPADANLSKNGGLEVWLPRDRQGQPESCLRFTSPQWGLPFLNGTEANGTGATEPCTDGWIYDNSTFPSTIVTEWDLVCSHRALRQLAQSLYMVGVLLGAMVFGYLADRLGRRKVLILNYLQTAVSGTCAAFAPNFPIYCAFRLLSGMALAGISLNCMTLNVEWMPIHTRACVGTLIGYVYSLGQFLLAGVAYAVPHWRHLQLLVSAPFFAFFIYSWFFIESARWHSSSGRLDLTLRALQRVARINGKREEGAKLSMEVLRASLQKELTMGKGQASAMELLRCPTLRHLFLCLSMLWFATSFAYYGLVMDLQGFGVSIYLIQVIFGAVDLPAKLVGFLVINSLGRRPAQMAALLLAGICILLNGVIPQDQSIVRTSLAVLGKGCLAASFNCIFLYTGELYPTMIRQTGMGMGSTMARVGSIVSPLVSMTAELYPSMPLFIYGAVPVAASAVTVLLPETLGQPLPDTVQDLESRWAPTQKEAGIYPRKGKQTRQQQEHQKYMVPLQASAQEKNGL

[2] = target: T1, Solute carrier family 22 member 6; assay: TP_TRANSPORTER: inhibition of PAH uptake in OAT1-expressing CHO cells; format: functional, cell-based
[3] = target: T1, Solute carrier family 22 member 6; assay: TP_TRANSPORTER: trans-stimulation in OAT1-COS7 cells; format: functional, cell-based, COS-7

N[C@H](CS/C(Cl)=C/Cl)C(=O)O
IC50 [1]: 208 µM

N[C@@H](CSc1nc2ccccc2s1)C(=O)O
IC50 [2]: 9.9 µM

N[C@H](CSc1nc2ccccc2s1)C(=O)O [BENZOTHIAZOLYLCYSTEINE]
IC50 [3]: 9.9 µM
